# Source: article PMC13224100, “Esterase-Responsive Mitochondria-Targeted Hydropersulfide Donors Mitigate Doxorubicin Cardiotoxicity While Preserving Anticancer Activity” (Angewandte Chemie (International ed. in English), 2025)
# How the values were obtained:
# Assay type in all cases: cell-based
# H9c2 cells [1] = assay: Mitochondrial membrane potential (TMRM) under DOX; details: donor 25 μM, 4 h pretreatment, DOX 5 μM 24 h
# Protocol: (§1) Figure 6. a) Basal sulfane sulfur (SS) levels in H9c2 cardiomyocyte, MDA-MB-468, MCF-7, and HepG2 cell lines as detected by SSP4 fluorescence. b) Representative images and c) basal levels of mitochondrial membrane potential (MMP) in H9c2 and cancer cells (MDA-MB-468, MCF-7, and HepG2). d) Impact of APT-1 (25 μM) or APT-1-TPP (25 μM) on MMP in DOX (5 μM)-treated (d) H9c2 and e) HepG2 cells. Impact of APT-1 (25 μM) and APT-1-TPP (25 μM) on ATP levels in DOX (5 μM)-treated f) H9c2 and g) HepG2 cells. Results are expressed as mean ± SEM, n = 3–6; *P < 0.05, **P < 0.01, ***P < 0.001, ****P < 0.0001. Significances in (a) and (c) are presented with respect to H9c2 cells.
# (§2) We then examined how RSSH donors influence MMP during DOX exposure. As expected, DOX alone induced mitochondrial depolarization in H9c2 cells, reducing MMP to ca. 50% of control (Figure 6d). […] To complement these observations, we quantified intracellular ATP levels as a functional readout of mitochondrial activity. […]
# (§3) Mitochondrial Membrane Potential Measurements
# (§4) Mitochondrial membrane potential was measured using Image-iT™ TMRM Reagent (Cat#I34361, Invitrogen, USA) according to the manufacturer's protocols. […]
# (§5) The cells were incubated for an additional 24 h. After completion of treatment, cells were washed with a warm clear DMEM medium (with 10% FBS) and incubated in culture media containing TMRM (working solution 100 nM) for 30 min at 37 °C. Cells were then washed with a warm clear FBS-free DMEM medium (3 times) before imaging. Images were obtained with Zeiss LSM 800 with AiryScan Confocal (λex = 548 nm, λem = 573 nm). During each experiment, 6 field images were obtained for each experimental group. Images were analyzed using Image J software, and all cells in each image were selected for fluorescence intensity measurement (cell-free space was also measured as blank). H9c2 signal intensity was set to 100% and signal intensity for all the other cell lines was shown as a percentage of that of H9c2.
# (§6) The experiments were independently repeated three times (n = 3 biological replicates). Data are […]
# (§7) Figure S24. Representative TMRM images for mitochondrial membrane potential (MMP) in H9c2 and HepG2 cells with APT-1 and APT-1-TPP treatment under DOX stress. Ctl = vehicle (medium with 0.01% […]
# (§8) (1 picture or pasted object on this page, not shown here)
# HepG2 cells = assay: Mitochondrial membrane potential (TMRM) under DOX; details: donor 25 μM, 4 h pretreatment, DOX 5 μM 24 h
# Protocol: as §1, §2, §3, §4, §5, §6, §7, §8
# H9c2 cells [2] = assay: Intracellular RSSH analysis by LC-MS/MS after subcellular fractionation; details: 200 μM, 2 h; for HPE-AM adducts of Cys-SSH and GSSH, cytoplasmic fraction: vs vehicle; for Cys-SH and GSH in mitochondria: did not reach statistical significance
# Protocol: After confirming efficient esterase-triggered RSSH generation from these newly developed precursors in PBS (pH 7.4), we next evaluated their ability to release RSSH in cardiac cells. […] H9c2 cells were treated with each donor (200 μM, 2 h), followed by subcellular fractionation using differential centrifugation to isolate cytoplasmic and mitochondrial fractions. Each fraction was subsequently incubated with the RSSH-trapping agent HPE-IAM (5 mM in methanol) to alkylate and stabilize transient RSSH species. The resulting adducts were analyzed by LC–MS/MS.[40, 41] In the cytoplasmic fraction, both donors increased HPE-AM adducts of Cys-SSH and GSSH, with APT-1 showing higher levels than APT-1-TPP (Figure 3a,b).
# Figure 3. Measurement of cysteine hydropersulfide (Cys-SSH) and glutathione hydropersulfide (GSSH) in cytoplasm (a and b) and mitochondria (c and d) of H9c2 cells. Cells were treated with APT-1 (200 μM), APT-1-TPP (200 μM), or vehicle (0.01% DMSO in serum-free medium) for 2 h, followed by subcellular fractionation. Each fraction was incubated with HPE-IAM (5 mM, 30 min) to trap RSSH species prior to LC–MS/MS analysis. Data are mean ± SEM (n = 3); *p ≤ 0.05, **p ≤ 0.01. […]
# Intracellular RSSH Analysis by LC-MS
# H9c2 cells were cultured in 150-mm dishes to 80–90% confluency and treated for 2 h with either control medium (FBS-free DMEM, 0.01% DMSO) or 200 μM RSSH donors (FBS-free DMEM with APT-1 or APT-1-TPP). Cells were washed two times with warm PBS, collected by scraping, and centrifuged at 1,000 × g for 10 min at 4 °C (Sorvall ST 8R, ThermoFisher). Pellets were resuspended in 0.6 mL sucrose buffer; ¼ was reserved for BCA assay and ¾ used for fractionation. Cells were lysed on ice by 20 passages through a 26-G needle and centrifuged at 1,500 × g for 10 min at 4 °C (Z 216 MK, HERMLE). Pellets (nuclear/debris fraction) were collected, and supernatants were centrifuged at 12,000 × g for 10 min at 4 °C. Pellets (mitochondrial fraction) and supernatants (cytoplasmic fraction) were collected. Each of these fractions were resuspended in methanol containing 5 mM HPE-IAM, sonicated (3 × 10 s on/10 s off, Branson Sonifier SFX150), incubated at 37 °C for 30 min, and centrifuged at 16,000 × g for 10 min at 4 °C.
# Supernatants were analyzed by MRM LC-MS/MS (Ultivo Triple Quadrupole, Agilent) using a Poroshell 120 EC-C18 column (4.6 × 100 mm, 2.7 μm; Agilent) at 30 °C, 0.6 mL/min, with the following gradient (solvent A: water + 0.1% TFA; solvent B: acetonitrile + 0.1% TFA): 0–1.5 min, […]
# min, 97% A. Injection volume: 10 μL. Experiments were performed in triplicate (n = 3 biological replicates). Data are shown as mean ± SEM. […]
# Ta b l e S1. MRM parameters for LC-MS/MS
# Analyte Polarity Precursor ion Product ion Collision energy
# Figure S21. Measurement of H2S2, and H2S in cytoplasm (A, B) and mitochondria (C,D) of H9c2 cells treated with APT-1 (200 µM) APT-1-TPP (200 µM), or vehicle (0.01% DMSO in serum-free medium) for 2 h. Data are mean ± SEM (n = 3); *p ≤ 0.05, **p ≤ 0.01.
# Figure S22. Measurement of Cys-SH and GSH in cytoplasm (A, B) and mitochondria (C, D) of H9c2 cells […]
# Cytotoxicity Assessment of Hydropersulfide Precursors in H9c2 and HepG2 cells Cell viability was measured using the Cell Counting Kit-8 (CCK-8, Dojindo).[7] H9c2 cardiomyoblast and HepG2 cells were seeded at a density of 8 × 10³ cells/well in a 96-well plate (flat-bottom, tissue culture-treated). […]
Compound,effect on DOX-induced loss of MMP (H9c2 cells [1]),effect on DOX-induced mitochondrial depolarization (HepG2 cells),Cys-SH and GSH in the cytoplasm (H9c2 cells [2]),H2S and H2S2 levels in the cytoplasm (H9c2 cells [2]),"HPE-AM adducts of Cys-SSH and GSSH, cytoplasmic fraction (H9c2 cells [2])",Cys-SH and GSH in mitochondria (H9c2 cells [2]),H2S and H2S2 levels in mitochondria (H9c2 cells [2]),"Cys-SSH and GSSH adducts, mitochondrial fraction (H9c2 cells [2]; compared with APT-1)"
COC(=O)C(NC(C)=O)C(C)(C)SSC(=O)N(C)CCOC(C)=O (stereo not shown) [APT-1],preserved MMP,neither donor prevented DOX-induced mitochondrial depolarization,significant increases,elevated,increased,modest increases,–,–
CC(=O)NC(C(=O)N(C)CCC[P+](c1ccccc1)(c1ccccc1)c1ccccc1)C(C)(C)SSC(=O)N(C)CCOC(C)=O (stereo not shown) [APT-1-TPP],"conferred protection, though to a slightly lesser extent",further exacerbated MMP loss,significant increases,–,increased,modest increases,elevated,substantially higher levels
